Key:
[1] = system: vascular endothelial growth factor (VEGF); assay: Ex.3 neuroprotective HIE rat model: VEGF staining; type: in vivo
Method: The sections were heated in 10 mmol/L citrate buffer (pH 6.0) at 100° C. for 10 minutes. Endogenous peroxidase activity was blocked with 3% hydrogen peroxide for 10 minutes and after a second blocking with 5% normal goat serum, the sections were incubated with anti-doublecortin (DCX) antibody, diluted 1:1000 (rabbit polyclonal antibody; Abcam, Cambridge, UK) and anti-vascular endothelial growth factor (VEGF) antibody, diluted 1:100 (mouse monoclonal antibody; Abcam, Cambridge, UK) overnight at 4° C. After rinsing, Alexa Fluor® goat anti-rabbit, diluted 1:1000 and Alexa Fluor® goat anti-mouse, diluted 1:1000 (Invitrogen Inc., Ghent, Belgium) were added and sections were incubated 1 h at room temperature. Mounting medium containing 4′,6-diamidino-2-phenylindole (DAPI) for fluorescent studies was used (Vector Laboratories). Samples were analyzed with the aid of a microscope (Olympus Vanox AHBT3, Olympus), and the ImageJ software (NIH). The percentage of positively stained cells was quantified as a sum of positively stained either DCX or VEGF cells divided by the total number of DAPI positive cells expressed in percentage.
Newborn rat pups were assigned to one of the following 6 groups from postnatal day 4: Sham group (n=24), Vehicle group (n=14), E4 1 mg/kg/per day group (n=11), E4 5 mg/kg/per day group (n=14), E4 10 mg/kg/per day group (n=14), or E4 50 mg/kg/per day group (n=19). From postnatal day 4, rat pups were intraperitoneally injected either vehicle (Vehicle group) or E4 (1, 5, 10, or 50 mg/kg/per day in accordance to the E4 group assignment) or neither vehicle nor E4 (Sham group). At day 7, 30 minutes after last injection, animals were anesthetized with isoflurane (induction, 3.0%; maintenance, 1.5%), and the rat pups from Vehicle and E4 groups passed through surgery encompassing left common carotid artery double ligation and cut. After the procedure, the pups were returned to their dams and were allowed to recover for 1 hour. The pups were then placed in the humidified hypoxic in vivo cabinet (CoyLab, Grass Lake, Mich., USA). Hypoxia was produced by the inhalation of 11%-8% of oxygen balanced by nitrogen at decreased concentration of oxygen for 20 minutes, followed by inhalation of 8% oxygen and 92% nitrogen at constant concentration for 35 minutes. All the manipulations were performed at 37° C. The Sham group went through similar procedures without left common carotid artery ligation followed by hypoxia nor injection. Rat pups recovered with their dams and reared normally until being sacrificed at postnatal day 14.

[2] = system: Microtubule-associated protein 2 (MAP2); assay: Ex.8 therapeutic HIE rat model: MAP2 staining; type: in vivo
Method: To study the therapeutic effect of estetrol, newborn rat pups were assigned to one of the following 14 groups at postnatal day 7 (FIG. 23(B)): Sham group (n=12), Vehicle (n=15), 5 mg/kg/day E4 (n=11), 10 mg/kg/day E4 (n=11), 5 mg/kg/day E4+1.6 mg/kg/day PROG (n=11), 10 mg/kg/day E4+1.6 mg/kg/day PROG (n=11), 5 mg/kg/day E4+16 mg/kg/day PROG (n=11), 10 mg/kg/day E4+16 mg/kg/day PROG (n=13), 5 mg/kg/day E4+136 ng//kg/day E2 (n=11), 10 mg/kg/day E4+136 ng/kg/day E2 (n=11), 5 mg/kg/day E4+1.6 mg/kg/day PROG+136 ng/kg/day E2 (n=12), 10 mg/kg/day E4+1.6 mg/kg/day PROG+136 ng/kg/day E2 (n=11), 5 mg/kg/day E4+16 mg/kg/day PROG+136 ng/kg/day E2 (n=11), 10 mg/kg/day E4+16 mg/kg/day PROG+136 ng/kg/day (n=12) groups. […] After surgery, the pups were returned to their dams and allowed to recover for 1 hour. The pups were then placed in a humidified hypoxic in vivo cabinet (CoyLab). […]
The brain sections were processed for immunohistochemical detection of neuronal cytoskeletal disruption. […] Samples were analyzed with the aid of an image scanner (Nanozoomer Virtual Microscopy, Hamamatsu, Tokyo, Japan) and the ImageJ software (NIH, US). The positive areas in the ipsilateral and contralateral hemispheres were measured. The ratio of the MAP2 positive areas was calculated as the MAP2 positive area of the ipsilateral hemisphere divided by the MAP2 positive area of the contralateral hemisphere. […]

C[C@]12CC[C@@H]3c4ccc(O)cc4CC[C@H]3[C@@H]1[C@@H](O)[C@@H](O)[C@@H]2O [E4, 1,3,5(10)-estratrien-3,15α,16α,17β-tetrol]
percentage of VEGF positively stained cells ([1]; 1 mg/kg E4 ip PND4-7 before HI, CA2/CA3): 34.1±6.855% | percentage of VEGF positively stained cells ([1]; 1 mg/kg E4 ip PND4-7 before HI, DG): 43.5±2.083% | percentage of VEGF positively stained cells ([1]; 5 mg/kg E4 ip PND4-7 before HI, DG): 46.0±4.361% | percentage of VEGF positively stained cells ([1]; 10 mg/kg E4 ip PND4-7 before HI, CA1): 37.4±7.645% | percentage of VEGF positively stained cells ([1]; 10 mg/kg E4 ip PND4-7 before HI, DG): 47.0±5.362% | percentage of VEGF positively stained cells ([1]; 10 mg/kg E4 ip PND4-7 before HI, cortex): 46.2±7.646% | percentage of VEGF positively stained cells ([1]; 50 mg/kg E4 ip PND4-7 before HI, DG): 46.0±4.465% | MAP-2 positive area ratio ([2]; 5 mg/kg/day E4): 0.98±0.02 | MAP-2 positive area ratio ([2]; 10 mg/kg/day E4): 0.97±0.04
